From patent US20260001892A1, “COMPOUND FOR REGULATING AND CONTROLLING ACTIVITY OF 15-PGDH AND PREPARATION METHOD THEREFOR” (SCINNOHUB PHARMACEUTICAL CO., LTD., priority 2022, published 2026)

Target: 15-PGDH (Homo sapiens (Human), UniProt P15428)
Assay: Detection of activity of 15-PGDH enzyme
Type: biochemical
Details: inhibitory activity against 15-PGDH enzyme; substrates β-NAD and PGF2α; fluorescence Ex/Em=340/450
Experimental: • a. A solution of pH 7.5 containing 50 mM Tris-HCl, 0.01% Tween 20 was prepared with ultrapure water as a reaction buffer; • b. A 10 mM mother liquor of the compound to be tested was prepared with DMSO, and then the reaction buffer was used to dilute the mother liquor of the compound to be tested to obtain solution 1 of the compound to be tested at a concentration of 40,000 nM, and then the solution 1 of the compound to be tested was serially diluted into solutions 2-9 (or 2-12) of the compound to be tested at 9 (or 11) concentrations with a gradient difference of three-fold. 5 μL of each concentration of solutions of the compound to be tested was respectively taken and added into a 384-well plate as test wells; • c. 5 μL of the reaction buffer was then added to the blank wells of the 384-well plate as positive control and blank control wells, respectively; • d. The reaction buffer was used to prepare a 15-PGDH protein solution at a concentration of 5 ng/μL, 5 μL of the 15-PGDH protein solution was taken and added to the test wells and positive control wells, and meanwhile 5 μL of the reaction buffer was added to the blank control wells, then the plate was centrifuged at 2000 rpm for 30 seconds; • e. The reaction buffer was used to prepare 5 mM $3-NAD and 2 mM PGF2α, respectively, which were mixed at 1:1 by volume to obtain a substrate mixture, 10 μL of the substrate mixture was taken and added to the test wells, positive control wells and blank control wells to start the reaction; • f. The fluorescence signal value (Ex/Em=340/450) of each well was detected continuously by using a multifunctional microplate reader.
• a) Continuous fluorescence signal values were analyzed by using the “kinetic calculations-slope calculation method” in the PHERAstar Data analysis software to obtain the slope of each test well; • b) The inhibition rate % was calculated by using the following formula: inhibition rate %=[1−(slope of test well-signal value of positive control well)/(signal value of blank control well-average signal value of positive control well)]×100%. • c) Calculation of IC50 and plotting of inhibition rate-dose curves: IC50 values were calculated by fitting compound concentrations and corresponding inhibition rates with a nonlinear regression (dose response-variable slope) via using GraphPad Prism 6.0. The formula was shown below:
Y=Bottom+(Top−Bottom)/(1+10^((Log IC50−X)*HillSlope)), wherein X is a log value of a concentration of the compound, and Y is inhibition rate %.

Chain of 15-PGDH (P15428 whole entry): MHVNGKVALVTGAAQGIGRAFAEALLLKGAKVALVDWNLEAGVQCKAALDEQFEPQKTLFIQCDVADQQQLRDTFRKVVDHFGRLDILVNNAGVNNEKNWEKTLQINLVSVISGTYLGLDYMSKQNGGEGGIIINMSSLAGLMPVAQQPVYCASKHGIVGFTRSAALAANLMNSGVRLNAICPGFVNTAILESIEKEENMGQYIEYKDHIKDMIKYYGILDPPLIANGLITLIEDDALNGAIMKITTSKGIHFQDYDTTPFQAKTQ

Row | SMILES | IC50 [nM]
1 | CN1Cc2cc(-c3cnc4c(C(F)(F)F)c(C(=O)N5CCCCC5)sc4n3)ccc2C1=O [Example 94] | 3 to 10
2 | COc1ncc(-c2cnc3c(C4CC4)c(C(=O)N4CCCCC4)sc3n2)cn1 [Example 5] | < 3
3 | N#Cc1c(C(=O)N2CCCCC2)sc2nc(-c3cnc(N)nc3)cnc12 [Example 60] | 3 to 10
4 | O=C(c1sc2nc(-c3ccccc3)cnc2c1O)N1CCCCC1 [Example 101] | 50 to 100
5 | COc1ccc(-c2cnc3c(C4CC4)c(C(=O)N4CCCCC4)sc3n2)cn1 [Example 23] | 10 to 20
6 | COc1ccc(-c2cnc3c(C(F)(F)F)c(C(=O)N4CCCCC4)sc3n2)cn1 [Example 80] | 3 to 10
7 | COc1c(C(=O)N2CCCCC2)sc2nc(-c3ccccc3)cnc12 [Example 95] | 3 to 10
8 | O=C(c1sc2nc(-c3ccnc(C(F)(F)F)c3)cnc2c1C1CC1)N1CCCCC1 [Example 25] | 10 to 20
9 | O=C(c1sc2nc(-c3ccc(N4CCOCC4)nc3)cnc2c1C1CC1)N1CCCCC1 [Example 19] | 3 to 10
10 | Cc1ccc(-c2cnc3c(C#N)c(C(=O)N4CCCCC4)sc3n2)cn1 [Example 51] | 10 to 20
11 | Cc1c(C(=O)N2CCCCC2)sc2nc(-c3ccccc3)cnc12 [Example 96] | 10 to 20
12 | O=C(c1sc2nc(-c3cncnc3)cnc2c1C(F)(F)F)N1CCCCC1 [Example 91] | 3 to 10
13 | Cc1ccc(-c2cnc3c(C4CC4)c(C(=O)N4CCCCC4)sc3n2)cn1 [Example 24] | < 3
14 | CN1Cc2cc(-c3cnc4c(C#N)c(C(=O)N5CCCCC5)sc4n3)ccc2C1=O [Example 62] | 3 to 10
15 | COc1cc(-c2cnc3c(C4CC4)c(C(=O)N4CCCCC4)sc3n2)ccn1 [Example 26] | < 3
16 | COc1ncc(-c2cnc3c(C(F)(F)F)c(C(=O)N4CCCCC4)sc3n2)cn1 [Example 64, (3-(2-methoxypyrimidin-5-yl)-7-(trifluoromethyl)thieno[2,3-b]pyrazin-6-yl)(piperidin-1-yl)methanone] | 3 to 10

Row | SMILES | IC50 [nM]
17 | N#Cc1c(C(=O)N2CCCCC2)sc2nc(-c3ccc(N4CCOCC4)nc3)cnc12 [Example 43] | 10 to 20
18 | O=C(c1sc2nc(-c3ccccc3)cnc2c1C1CC1)N1CCCCC1 [Example 1, (7-cyclopropyl-3-phenylthieno[2,3-b]pyrazin-6-yl)(piperidin-1-yl)methanone] | < 3
19 | O=C(c1sc2nc(-c3cccnc3)cnc2c1C1CC1)N1CCCCC1 [Example 7] | 3 to 10
20 | Nc1ncc(-c2cnc3c(C4CC4)c(C(=O)N4CCCCC4)sc3n2)cn1 [Example 31] | < 3
21 | O=C(c1sc2nc(-c3cncnc3)cnc2c1C1CC1)N1CCCCC1 [Example 22] | < 3
22 | O=C(c1sc2nc(-c3cccs3)cnc2c1C1CC1)N1CCCCC1 [Example 17] | 3 to 10
23 | CN(C)c1ncc(-c2cnc3c(C4CC4)c(C(=O)N4CCCCC4)sc3n2)cn1 [Example 30] | 3 to 10
24 | O=C(c1sc2nc(-c3ccncc3)cnc2c1C1CC1)N1CCCCC1 [Example 9] | 3 to 10
25 | N#Cc1c(C(=O)N2CCCCC2)sc2nc(-c3ccc4nccn4c3)cnc12 [Example 47] | 3 to 10
26 | Cc1noc(C)c1-c1cnc2c(C3CC3)c(C(=O)N3CCCCC3)sc2n1 [Example 8] | 3 to 10
27 | Cn1cc(-c2cnc3c(C4CC4)c(C(=O)N4CCCCC4)sc3n2)ccc1=O [Example 18] | < 3
28 | Cn1cc(-c2cnc3c(C4CC4)c(C(=O)N4CCCCC4)sc3n2)cn1 [Example 10] | 3 to 10
29 | Cn1cc(-c2cnc3c(C(F)(F)F)c(C(=O)N4CCCCC4)sc3n2)cn1 [Example 68] | 3 to 10
30 | N#Cc1c(C(=O)N2CCCCC2)sc2nc(-c3ccc4nccnc4c3)cnc12 [Example 45] | 3 to 10
31 | Nc1cc(-c2cnc3c(C(F)(F)F)c(C(=O)N4CCCCC4)sc3n2)ccn1 [Example 83] | 3 to 10

Next, values leading:

Row | IC50 [nM] | SMILES
32 | 3 to 10 | CN(C)c1ncc(-c2cnc3c(C#N)c(C(=O)N4CCCCC4)sc3n2)cn1 [Example 58]
33 | 3 to 10 | Nc1cc(-c2cnc3c(C4CC4)c(C(=O)N4CCCCC4)sc3n2)ccn1 [Example 28]
34 | < 3 | O=C(c1sc2nc(-c3ccc4nccn4c3)cnc2c1C1CC1)N1CCCCC1 [Example 12]
35 | 3 to 10 | O=C(c1sc2nc(-c3ccc(F)nc3)cnc2c1C(F)(F)F)N1CCCCC1 [Example 79]
36 | 10 to 20 | O=C(c1cc2ncc(-c3ccccc3)nc2s1)N1CCCCC1 [Example 100]
37 | < 3 | Cc1cc(-c2cnc3c(C(F)(F)F)c(C(=O)N4CCCCC4)sc3n2)ccn1 [Example 87]
38 | 3 to 10 | O=C(c1sc2nc(-c3ccc4nccnc4c3)cnc2c1C1CC1)N1CCCCC1 [Example 20]
39 | 3 to 10 | O=C(c1sc2nc(-c3ccc4ncsc4c3)cnc2c1C1CC1)N1CCCCC1 [Example 13]
40 | 3 to 10 | O=C(c1sc2nc(-c3cncs3)cnc2c1C(F)(F)F)N1CCCCC1 [Example 86]
41 | 10 to 20 | N#Cc1ccc(-c2cnc3c(C4CC4)c(C(=O)N4CCCCC4)sc3n2)cn1 [Example 11]
42 | 10 to 20 | O=C(c1sc2nc(-c3ccc4c(c3)OCCO4)cnc2c1C(F)(F)F)N1CCCCC1 [Example 76]
43 | 3 to 10 | O=C(c1sc2nc(-c3ccc4nccn4c3)cnc2c1C(F)(F)F)N1CCCCC1 [Example 77]
44 | 3 to 10 | O=C(c1sc2nc(-c3ccnc(F)c3)cnc2c1C1CC1)N1CCCCC1 [Example 4]
45 | 3 to 10 | Cc1cc(-c2cnc3c(C4CC4)c(C(=O)N4CCCCC4)sc3n2)ccn1 [Example 2, (7-cyclopropyl-3-(2-methylpyridin-4-yl)thieno[2,3-b]pyrazin-6-yl)(piperidin-1-yl)methanone]
46 | 10 to 20 | O=C(c1sc2nc(-c3ccc4ncsc4c3)cnc2c1C(F)(F)F)N1CCCCC1 [Example 78]
47 | 10 to 20 | COc1ncc(-c2cnc3c(C#N)c(C(=O)N4CCCCC4)sc3n2)cn1 [Example 34, 3-(2-methoxypyrimidin-5-yl)-6-(piperidine-1-carbonyl)thieno[2,3-b]pyrazine-7-carbonitrile]
48 | 3 to 10 | N#Cc1c(C(=O)N2CCCCC2)sc2nc(-c3cnc(N4CCOCC4)nc3)cnc12 [Example 59]
49 | 10 to 20 | Cc1noc(C)c1-c1cnc2c(C(F)(F)F)c(C(=O)N3CCCCC3)sc2n1 [Example 70]
50 | < 3 | O=C(c1sc2nc(-c3cnc(N4CCOCC4)nc3)cnc2c1C1CC1)N1CCCCC1 [Example 3]

Row | IC50 [nM] | SMILES
51 | 3 to 10 | N#Cc1c(C(=O)N2CCCCC2)sc2nc(-c3cncs3)cnc12 [Example 56]
52 | 3 to 10 | O=C(c1sc2nc(-c3ccncc3)cnc2c1C(F)(F)F)N1CCCCC1 [Example 72]
53 | 3 to 10 | O=C(c1sc2nc(-c3ccc(F)nc3)cnc2c1C1CC1)N1CCCCC1 [Example 27]
54 | 3 to 10 | CCc1c(C(=O)N2CCCCC2)sc2nc(-c3ccccc3)cnc12 [Example 97]
55 | 3 to 10 | O=C(c1sc2nc(-c3ccnc(F)c3)cnc2c1C(F)(F)F)N1CCCCC1 [Example 65]
56 | 10 to 20 | CN(C)c1ncc(-c2cnc3c(C(F)(F)F)c(C(=O)N4CCCCC4)sc3n2)cn1 [Example 88]
57 | 10 to 20 | COc1cc(-c2cnc3c(C#N)c(C(=O)N4CCCCC4)sc3n2)ccn1 [Example 55]
58 | 10 to 20 | N#Cc1c(C(=O)N2CCCCC2)sc2nc(-c3ccccc3)cnc12 [Example 33, 3-phenyl-6-(piperidine-1-carbonyl)thieno[2,3-b]pyrazine-7-carbonitrile]
59 | < 3 | O=C(c1sc2nc(-c3cccnc3)cnc2c1C(F)(F)F)N1CCCCC1 [Example 74]
60 | 3 to 10 | O=C(c1sc2nc(-c3cncs3)cnc2c1C1CC1)N1CCCCC1 [Example 29]
61 | 3 to 10 | Cc1cc(-c2cnc3c(C#N)c(C(=O)N4CCCCC4)sc3n2)ccn1 [Example 57]
62 | 3 to 10 | O=C(c1sc2nc(-c3ccccc3)cnc2c1C(F)(F)F)N1CCCCC1 [Example 63, (3-phenyl-7-(trifluoromethyl)thieno[2,3-b]pyrazin-6-yl)(piperidin-1-yl)methanone]
63 | 10 to 20 | N#Cc1ccc(-c2cnc3c(C(F)(F)F)c(C(=O)N4CCCCC4)sc3n2)cn1 [Example 67]
64 | 10 to 20 | CC(C)c1c(C(=O)N2CCCCC2)sc2nc(-c3ccccc3)cnc12 [Example 99]
65 | < 3 | O=C(c1sc2nc(-c3ccccc3)cnc2c1Br)N1CCCCC1 [Example 98]
66 | 3 to 10 | N#Cc1c(C(=O)N2CCCCC2)sc2nc(-c3cncnc3)cnc12 [Example 61]
67 | 3 to 10 | COc1cc(-c2cnc3c(C(F)(F)F)c(C(=O)N4CCCCC4)sc3n2)ccn1 [Example 85]
68 | 10 to 20 | O=C(c1sc2nc(-c3c[nH]c4ccccc34)cnc2c1C1CC1)N1CCCCC1 [Example 16]
